This is an account of results in patent publication US12508239B2, “Alcohol derivatives as Kv7 potassium channel openers for use in epilepsy or seizures” (H. Lundbeck A/S, priority 2019, dated 2025).

Structures are written as SMILES.

In series [1] the target is T1, hKv7.2/hKv7.3 (Homo sapiens, UniProt O43525+O43526).
T1 construct: P2A self-cleaving linker (remnant after ribosomal skipping); expressed in transfected cells; vector pcDNA5/FRT/TO
Briefly: Thallium influx assay for potassium channel activation. The series is classed as cell-based. Particulars: HEK-hKv7.2/hKv7.3 cells; AUC readout normalized to a reference compound. How it is done:
(§1) A synthesized cDNA fragment encoding human Kv7.3 and human Kv7.2 separated by a P2A sequence was inserted into the pcDNA5/FRT/TO vector using the BamHI and XhoI restriction sites. The construct was then transfected into HEK Flp-In 293 cells using Lipofectamine2000. The transfected cells were grown for 48 hours in DMEM containing 10% (v/v) FBS and 1% PenStrep and subsequently maintained under selection in DMEM containing 10% (v/v) FBS, 1% PenStrep and 200 ug/mL Hygromycin B at 37° C. in a humidified atmosphere of 5% CO2.
The thallium influx assay for potassium channel activation was performed analogously to a published procedure (C. D. Weaver, et al., J Biomol Screen 2004, 9, 671-677) using the FLIPR Potassium Assay kit (Molecular Devices). HEK-hKv7.2/hKv7.3 cells were plated onto 96-well, black-walled, clear-bottomed culture plates (Corning, Acton, MA, USA) at a density of 80,000 cells/well (100 μl/well) if the cells were assayed the following day, or 40,000 cells/well (100 μl/well) if the cells were assayed two days after seeding.
On the assay day, the medium was removed after which 50 uL/well of test compound diluted to 2× final concentration in HBSS containing 20 mM HEPES, and 50 uL/well of 2× dye load buffer were added. The cells were then incubated for 60 min at room temperature in the dark. Chloride-free stimulation buffer containing Tl^+ and K^+ at 5× final concentration (5× concentration: 5 mM in both cases) and test compound at 1× final concentration, were prepared during the incubation. The cells were then assayed in a FDSS7000EX Functional Drug Screening System (Hamamatsu). Following 60 sec of baseline fluorescence signal reading at 0.1 Hz, and 10 sec at 1 Hz, 25 uL/well of stimulation buffer were added and the fluorescence continuously measured for 50 sec at 1 Hz followed, by 4 min at 0.1 Hz. Compound effect was quantified using AUC as readout and normalized to a reference compound, which was included on each plate.

Series [2] concerns the target T1, hKv7.2/hKv7.3. Briefly: Automated whole cell patch-clamp of stable HEK-hKv7.2/hKv7.3 cell line. The series is classed as cell-based. Particulars: functional test of the cell line. Here is the method: as §1
Background: Patch clamp records ionic current or voltage across a cell membrane.

The test system of series [3] is rats. Briefly: Maximal electroshock seizure threshold test (MEST) in rats. The series is classed as in vivo, rat. Conditions: for seizure threshold: rats. How it is done: (§2) Significant differences between drug-treated animals and controls were assessed according to Litchfield and Wilcoxon, Pharmacol Exp Ther. 1949; 96(1):99-113
(In the maximal electroshock model the usual endpoint is tonic extension of the hind limbs.)

Series [4] deals with mice. Briefly: Maximal electroshock seizure threshold test (MEST) in mice. The series is classed as in vivo, mouse. Conditions: corneal electrodes. How it is done:
as §2

In the case of `C[C@H](NC(=O)CC(C)(O)C(F)(F)C(F)F)c1cccc(OC(F)(F)F)c1` (single isomer, unassigned) [Example 10a], the EC50 (commonly the concentration needed to bring the measured effect to its halfway point) in series [1] is 0.65 µM.
On to `O=C1c2ccccc2C(Cc2ccncc2)(Cc2ccncc2)c2ccccc21` [XE991], for which the “effect on Kv7-current” value in series [2] is given as “sensitive”.
Compound `C[C@H](NC(=O)C[C@@](C)(O)CC(F)(F)F)c1cccc(OC(F)(F)F)c1` (single isomer, unassigned) [Example 13a] had an EC50 in series [1] of 1.9 µM.
As for `C[C@H](NC(=O)CC1(O)CC(F)(F)C1)c1cccc(OC(F)(F)F)c1` [Example 5, (S)-2-(3,3-difluoro-1-hydroxycyclobutyl)-N-(1-(3-(trifluoromethoxy)phenyl)ethyl) acetamide], the “seizure threshold CC50 (current producing tonic hind limb extensor seizures in 50% of animals)” value in series [3] (rat, acute peroral administration 30 min prior to test, all doses tested 0.03-1 mg/kg, relative to vehicle) is on record as “significantly increased”. The seizure threshold result in series [3] (pretreatment with a single acute administration) is listed as “significant increase”; in series [3] (repeated administration (once daily, 15 days)), “significant increase”. Also, the “current required to induce an electroconvulsion, i.e. seizure threshold” value in series [4] is listed as “dose-dependent significant increase”.
For `C[C@H](NC(=O)C[C@H](O)C1CC(F)(F)C1)c1cccc(OC(F)(F)F)c1` [Example 11a, 3-(3,3-Difluorocyclobutyl)-3-hydroxy-N—((S)-1-(3-(trifluoromethoxy)phenyl)ethyl) propanamide], the response in series [1] was half-maximal at 1.5 µM (EC50).
Turning to `CCOC(=O)Nc1ccc(NCc2ccc(F)cc2)cc1N` [Retigabine, N-(2-amino-4-(4-fluorobenzylamino)-phenyl) carbamic acid ethyl ester], the “effect on Kv7-current” value in series [2] was “potentiated”.
